In general, viability refers to a read-out of living cells in per cent, often relative to untreated cells. High values mean better survival, low ones a greater loss of cells. The term MBC denotes the smallest concentration meeting the test's criterion for killing. The low end stands for greater bactericidal potency, the high end for weaker bactericidal potency.

The record followed here is PMC5387044, “Analogs of the Frog-skin Antimicrobial Peptide Temporin 1Tb Exhibit a Wider Spectrum of Activity and a Stronger Antibiofilm Potential as Compared to the Parental Peptide” (Frontiers in Chemistry, 2017).

Marks after values point to notes of the source that are not given here. No end group written: not given here.

In data set [1] the test system is S. aureus ATCC 33591. Type of data set: cell-based, Staphylococcus aureus. The settings on record: pH 7.4.
Data set [2] has as its system human red blood cells (RBCs). Particulars: concentrations up to 96 μM, 1 h, 37°C.
Description: Hemolytic activity of TB and its analogs was tested against human red blood cells (RBCs) as previously described (Tavanti et al., [2011]). Briefly, peripheral blood obtained from healthy donors was centrifuged (1,000 × g for 10 min, 4°C) and washed three times with PBS (Euroclone, Milan, Italy). A suspension of RBCs (4%, v/v) was mixed with various concentrations of the peptides (from 12 to 96 μM) into a round-bottom polystyrene 96-well microplate (Corning Costar). RBCs suspended in PBS alone were used as negative control (0% hemolysis), while cells lysed with 0.1% Triton X-100 were taken as positive control (100% hemolysis). The microplate was incubated for 1 h at 37°C and then centrifuged at 1,000 × g for 20 min, 4°C. Supernatants were transferred to a new plate and the optical density at 450 nm (OD450) was measured by means of a microplate reader. The hemolytic activity was quantified according to the following formula: hemolysis (%) = [(OD peptide – OD negative control)/(OD positive control – OD negative control)] × 100.
The hemolytic activity was evaluated by the spectrophotometric determination of hemoglobin released from erythrocytes. PBS (0% hemolysis) and Triton X-100 (100% hemolysis) were used as controls. Hemolysis values ≤ 10% (dashed line) are considered to be non-hemolytic (Amin and Dannenfelser, [2006]). […]
Data set [3] in a line: in vitro. The settings on record: human.
In data set [4] the test system is preformed biofilms of S. aureus ATCC 33591. Kind of data set: Biofilm treatment assay on preformed (24-h old) biofilms, CFU counting, alone and with EDTA. In kind it is cell-based, Staphylococcus aureus. The settings on record: concentrations up to 120 μM, CFU counting. The method, then: The activity of TB, TB_L1FK, and TB_KKG6A against preformed (24-h old) biofilms of S. aureus and P. aeruginosa was also investigated. Briefly, biofilms were allowed to form for 24 h in flat-bottom 96-well microplates in the absence of antimicrobial compounds. Established biofilms were then washed three times with PBS in order to remove non-adherent cells and incubated in fresh BPM with different concentrations of the three peptides (from 15 to 120 μM). After 24 h of incubation, the viability of biofilm-associated cells was evaluated by CFU counting. For this purpose, biofilms were washed three times with PBS and bacterial cells were detached from the surface of the wells with a pipette tip, vigorously vortexed and plated in serial dilutions on TSA.
TB_L1FK and TB_KKG6A were combined with EDTA in order to enhance their activity against preformed biofilms of S. aureus and P. aeruginosa. […] Following incubation, the antibiofilm effect was evaluated in terms of number of biofilm-associated viable cells as previously described.
Figure 4 Activity of TB_L1FK and TB_KKG6A, used alone and in combination with EDTA, against preformed (24-h old) biofilms of S. aureus ATCC 33591 (A,B) and P. aeruginosa ATCC 27853 (C,D). The antibiofilm activity of the peptides, EDTA and the peptide-EDTA combinations was evaluated by CFU counting after 24 h of incubation. […]

Data set [5] has as its system P. aeruginosa ATCC 27853. Type of data set: cell-based, Pseudomonas aeruginosa. Particulars: pH 7.4.
Data set [6] relates to P. aeruginosa ATCC 27853 biofilm formation.
Data set [7] has as its system K. pneumoniae ATCC BAA-1706. Particulars: ATCC BAA-1706, 24 h, pH 7.4.
For data set [8], the system named is S. aureus ATCC 33591. Particulars: ATCC 33591, 24 h, pH 7.4.
A short description of data set [9]: in vitro. The settings on record: human. This is another data set of the same source.
Data set [10] deals with S. epidermidis ATCC 35984. The settings on record: ATCC 35984, 24 h, pH 7.4.
For data set [11], the system named is P. aeruginosa ATCC 27853. The settings on record: ATCC 27853, 24 h, pH 7.4.

Take LLPIVGNLLKSLL-NH2 [TB, Temporin 1Tb]: in the data set with S. aureus ATCC 33591 [1], the “Time to bactericidal effect (reduction of at least 3 Log10 in viable bacteria)” value is “approximately 90 min”. Besides, the Hemolytic effect entry in data set [2] is reported as “no hemolytic effect”. The viability in the data set “in vitro [3]” and in “in vitro [9]” was approximately 90% each time. The “Antibiofilm activity on preformed biofilms” value in [4] is given as “did not exert a considerable antibiofilm activity”. In addition, in the data set with P. aeruginosa ATCC 27853 [5], the “Time to bactericidal effect” value is given as 15 min. Also, in [6], the “Inhibitory activity on forming biofilms” value is “no inhibitory activity”. Besides, the MBC in data set [7] was 48 µM; against S. aureus ATCC 33591 [8], 12^a μM; in data set [10], 6 µM; against P. aeruginosa ATCC 27853 [11], 48 µM.
